Source: ChEMBL document CHEMBL5126669, “Discovery of 5,7-Dihydro-6H-pyrrolo[2,3-d]pyrimidin-6-ones as Highly Selective CDK2 Inhibitors” (ACS Med Chem Lett, 2022)
Each block holds one molecule with its values, some of them ahead of it.

How the values were obtained:
[1] = target: Cyclin-dependent kinase 2/cyclin E1 (Homo sapiens, UniProt P24941); experiment: Inhibition of recombinant human N-terminal GST-tagged full-length CDK2/Flag-tagged cyclinE1 expressed in baculovirus expression system using eIF4E-binding protein-1 peptide as substrate incubated for 1 hr in presence of ATP by HTRF assay
Homo sapiens [2] = species: Homo sapiens; experiment: Selectivity ratio of IC50 for inhibition of CDK1/cyclin B (unknown origin) to IC50 for inhibition recombinant human N-terminal GST-tagged full-length CDK2/Flag-tagged cyclinE1 expressed in baculovirus expression system
Homo sapiens [3] = species: Homo sapiens; experiment: Selectivity ratio of IC50 for inhibition of CDK4/cyclin D1 (unknown origin) to IC50 for inhibition recombinant human N-terminal GST-tagged full-length CDK2/Flag-tagged cyclinE1 expressed in baculovirus expression system
Homo sapiens [4] = species: Homo sapiens; experiment: Selectivity ratio of IC50 for inhibition of CDK6/cyclin D1 (unknown origin) to IC50 for inhibition recombinant human N-terminal GST-tagged full-length CDK2/Flag-tagged cyclinE1 expressed in baculovirus expression system
[5] = target: Cyclin-dependent kinase 2 (Homo sapiens, UniProt P24941); experiment: Inhibition of CDK2 in human COV318 cells incubated for overnight in presence of human whole blood by HTRF assay; format: cell-based
[6] = Intrinsic clearance in human liver microsomes at 1 uM measured upto 30 mins by LC/MS analysis; format: ADME, Microsome; conditions: read-out: CLH (converted)
[7] = Inhibition of CDK1/cyclin B (unknown origin) in presence of ATP; design: species or system Homo sapiens
Homo sapiens [8] = species: Homo sapiens; experiment: Selectivity ratio of IC50 for inhibition of CDK1 in human OVCAR3 cells to IC50 for inhibition of CDK2 in human COV318 cells; format: cell-based
[9] = Cmax in Sprague-Dawley rat at 3 mg/kg, po measured upto 24 hrs by LC-MS/MS analysis; format: ADME, organism-based; design: dose 3 mg/kg, time < 24 hrs, route po; conditions: in vivo
[10] = Cmax in Cynomolgus monkey at 2 mg/kg, po measured upto 24 hrs by LC-MS/MS analysis; format: ADME, organism-based, Macaca fascicularis; design: dose 2 mg/kg, time < 24 hrs, route po; conditions: in vivo
[11] = AUC in Sprague-Dawley rat at 3 mg/kg, po measured upto 24 hrs by LC-MS/MS analysis; format: ADME, organism-based; design: dose 3 mg/kg, time < 24 hrs, route po; conditions: in vivo
[12] = AUC in Cynomolgus monkey at 2 mg/kg, po measured upto 24 hrs by LC-MS/MS analysis; format: ADME, organism-based, Macaca fascicularis; design: dose 2 mg/kg, time < 24 hrs, route po; conditions: in vivo
[13] = Oral bioavailability in Sprague-Dawley rat at 3 mg/kg measured upto 24 hrs by LC-MS/MS analysis; format: ADME, organism-based; conditions: in vivo
[14] = Oral bioavailability in Cynomolgus monkey at 2 mg/kg measured upto 24 hrs by LC-MS/MS analysis; format: ADME, organism-based, Macaca fascicularis; conditions: in vivo
[15] = Hepatic blood flow in Sprague-Dawley rat at 0.5 mg/kg, iv measured upto 24 hrs by LC-MS/MS analysis; format: ADME, organism-based; conditions: in vivo
[16] = Hepatic blood flow in Cynomolgus monkey at 0.3 mg/kg, iv measured upto 24 hrs by LC-MS/MS analysis; format: ADME, organism-based, Macaca fascicularis; conditions: in vivo
[17] = Volume of distribution at steady state in Sprague-Dawley rat at 0.5 mg/kg, iv measured upto 24 hrs by LC-MS/MS analysis; format: ADME, organism-based; conditions: Sprague-Dawley, in vivo, read-out: Vdss
[18] = Volume of distribution at steady state in Cynomolgus monkey at 0.3 mg/kg, iv measured upto 24 hrs by LC-MS/MS analysis; format: ADME, organism-based, Macaca fascicularis; conditions: in vivo, read-out: Vdss
Cytochrome P450 3A4 = Cytochrome P450 3A4 (Homo sapiens, UniProt P08684); experiment: Inhibition of CYP3A4 (unknown origin) at >25 uM; format: ADME
Cytochrome P450 3A4, sequence (P08684 whole entry): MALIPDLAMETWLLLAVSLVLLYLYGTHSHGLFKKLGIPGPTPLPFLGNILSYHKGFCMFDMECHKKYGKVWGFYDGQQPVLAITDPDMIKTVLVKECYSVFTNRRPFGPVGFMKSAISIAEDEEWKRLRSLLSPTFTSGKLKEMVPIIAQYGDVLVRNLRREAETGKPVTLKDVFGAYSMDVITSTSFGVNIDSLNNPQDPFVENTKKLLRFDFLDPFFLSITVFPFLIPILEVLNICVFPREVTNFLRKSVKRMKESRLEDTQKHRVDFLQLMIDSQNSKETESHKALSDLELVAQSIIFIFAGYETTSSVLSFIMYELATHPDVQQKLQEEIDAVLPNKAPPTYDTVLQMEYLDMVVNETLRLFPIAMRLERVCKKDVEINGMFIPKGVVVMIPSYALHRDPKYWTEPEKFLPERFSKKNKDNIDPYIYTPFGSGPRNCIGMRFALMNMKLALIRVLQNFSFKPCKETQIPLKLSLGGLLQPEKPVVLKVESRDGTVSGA

hERG (KCNH2) = hERG (KCNH2) (Homo sapiens, UniProt Q12809); experiment: Displacement of [3H]Dofetilide from human ERG at 10 uM incubated for 24 hrs by filter binding assay relative to control; format: toxicity; conditions: probe [3H]dofetilide
hERG (KCNH2), sequence (Q12809 whole entry): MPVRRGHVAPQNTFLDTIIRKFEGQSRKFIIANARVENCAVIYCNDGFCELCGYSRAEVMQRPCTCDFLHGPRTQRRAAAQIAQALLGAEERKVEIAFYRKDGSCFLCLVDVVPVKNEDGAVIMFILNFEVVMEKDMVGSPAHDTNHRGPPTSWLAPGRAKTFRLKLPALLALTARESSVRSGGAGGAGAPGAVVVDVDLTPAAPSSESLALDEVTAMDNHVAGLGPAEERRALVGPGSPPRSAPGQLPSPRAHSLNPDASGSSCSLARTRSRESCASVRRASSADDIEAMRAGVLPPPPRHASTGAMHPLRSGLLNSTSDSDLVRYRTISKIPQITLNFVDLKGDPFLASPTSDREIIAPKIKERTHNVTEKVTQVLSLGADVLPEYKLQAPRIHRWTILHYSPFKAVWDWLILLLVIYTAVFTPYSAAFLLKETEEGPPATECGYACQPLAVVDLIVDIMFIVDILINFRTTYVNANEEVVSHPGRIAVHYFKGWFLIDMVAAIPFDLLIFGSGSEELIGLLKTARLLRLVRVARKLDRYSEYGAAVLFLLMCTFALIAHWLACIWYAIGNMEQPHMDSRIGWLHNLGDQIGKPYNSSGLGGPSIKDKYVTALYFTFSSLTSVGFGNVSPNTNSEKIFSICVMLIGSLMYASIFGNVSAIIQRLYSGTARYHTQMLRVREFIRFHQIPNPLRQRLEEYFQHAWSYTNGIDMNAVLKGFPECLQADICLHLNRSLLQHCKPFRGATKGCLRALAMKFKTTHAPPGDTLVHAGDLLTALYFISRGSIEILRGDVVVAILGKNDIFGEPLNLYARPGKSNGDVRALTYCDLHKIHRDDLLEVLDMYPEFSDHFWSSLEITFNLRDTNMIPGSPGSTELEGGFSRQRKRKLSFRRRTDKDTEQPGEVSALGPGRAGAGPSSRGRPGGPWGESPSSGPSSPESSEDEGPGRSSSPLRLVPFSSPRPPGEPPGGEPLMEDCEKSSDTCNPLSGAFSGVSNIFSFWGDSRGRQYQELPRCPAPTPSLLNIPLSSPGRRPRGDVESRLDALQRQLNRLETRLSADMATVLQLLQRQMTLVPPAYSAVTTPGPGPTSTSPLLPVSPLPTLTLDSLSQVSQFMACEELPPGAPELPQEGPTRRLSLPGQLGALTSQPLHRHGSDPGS

Cytochrome P450 1A2 = target: T1, Cytochrome P450 1A2 (Homo sapiens, UniProt P05177); experiment: Inhibition of CYP1A2 (unknown origin) at >25 uM; format: ADME
T1 sequence (P05177 whole entry): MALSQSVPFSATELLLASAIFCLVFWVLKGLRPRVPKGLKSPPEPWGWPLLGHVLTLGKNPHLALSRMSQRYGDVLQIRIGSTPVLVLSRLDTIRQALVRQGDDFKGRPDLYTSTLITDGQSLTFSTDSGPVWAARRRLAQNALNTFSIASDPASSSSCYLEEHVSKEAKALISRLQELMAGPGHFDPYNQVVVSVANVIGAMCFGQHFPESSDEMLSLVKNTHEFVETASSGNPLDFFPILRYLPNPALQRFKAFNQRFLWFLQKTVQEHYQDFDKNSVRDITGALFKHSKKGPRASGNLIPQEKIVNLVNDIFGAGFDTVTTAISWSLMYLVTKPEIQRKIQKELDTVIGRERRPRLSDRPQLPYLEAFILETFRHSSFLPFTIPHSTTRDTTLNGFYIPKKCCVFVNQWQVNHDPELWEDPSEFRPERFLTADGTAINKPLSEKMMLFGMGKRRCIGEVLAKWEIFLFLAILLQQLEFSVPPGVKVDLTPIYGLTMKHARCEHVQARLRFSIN

Cytochrome P450 2C8 = target: T2, Cytochrome P450 2C8 (Homo sapiens, UniProt P10632); experiment: Inhibition of CYP2C8 (unknown origin) at >25 uM; format: ADME
T2 sequence (P10632 whole entry): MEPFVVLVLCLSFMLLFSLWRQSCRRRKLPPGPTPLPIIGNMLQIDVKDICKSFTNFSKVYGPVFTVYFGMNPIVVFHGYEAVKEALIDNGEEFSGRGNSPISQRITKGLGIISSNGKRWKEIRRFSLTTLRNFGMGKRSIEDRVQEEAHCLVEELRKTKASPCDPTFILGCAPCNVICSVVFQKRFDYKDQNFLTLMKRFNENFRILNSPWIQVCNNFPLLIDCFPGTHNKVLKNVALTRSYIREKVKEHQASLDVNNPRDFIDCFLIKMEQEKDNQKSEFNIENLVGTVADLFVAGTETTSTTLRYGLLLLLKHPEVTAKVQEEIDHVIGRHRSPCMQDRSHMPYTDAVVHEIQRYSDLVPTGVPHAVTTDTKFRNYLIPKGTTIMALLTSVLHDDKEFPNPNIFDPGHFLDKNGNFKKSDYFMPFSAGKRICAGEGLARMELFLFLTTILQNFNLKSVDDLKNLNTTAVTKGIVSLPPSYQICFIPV

Cytochrome P450 2C19 = Cytochrome P450 2C19 (Homo sapiens, UniProt P33261); experiment: Inhibition of CYP2C19 (unknown origin) at >25 uM; format: ADME
Cytochrome P450 2C19, sequence (P33261 whole entry): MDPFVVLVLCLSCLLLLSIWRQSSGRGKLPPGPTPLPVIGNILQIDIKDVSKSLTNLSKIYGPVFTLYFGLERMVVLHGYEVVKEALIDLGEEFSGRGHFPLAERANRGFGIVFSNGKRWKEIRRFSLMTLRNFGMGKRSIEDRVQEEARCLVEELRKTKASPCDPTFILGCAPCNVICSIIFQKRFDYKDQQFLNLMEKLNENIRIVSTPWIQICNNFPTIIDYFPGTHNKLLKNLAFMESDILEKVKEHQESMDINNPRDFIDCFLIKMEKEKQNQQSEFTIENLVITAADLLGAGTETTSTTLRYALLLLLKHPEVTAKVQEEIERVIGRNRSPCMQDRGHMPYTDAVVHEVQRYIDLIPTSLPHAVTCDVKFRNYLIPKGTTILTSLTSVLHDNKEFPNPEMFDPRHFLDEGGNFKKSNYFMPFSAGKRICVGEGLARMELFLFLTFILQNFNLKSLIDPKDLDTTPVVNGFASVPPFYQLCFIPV

Cytochrome P450 2B6 = target: T3, Cytochrome P450 2B6 (Homo sapiens, UniProt P20813); experiment: Inhibition of CYP2B6 (unknown origin) at >25 uM; format: ADME
T3 sequence (P20813 whole entry): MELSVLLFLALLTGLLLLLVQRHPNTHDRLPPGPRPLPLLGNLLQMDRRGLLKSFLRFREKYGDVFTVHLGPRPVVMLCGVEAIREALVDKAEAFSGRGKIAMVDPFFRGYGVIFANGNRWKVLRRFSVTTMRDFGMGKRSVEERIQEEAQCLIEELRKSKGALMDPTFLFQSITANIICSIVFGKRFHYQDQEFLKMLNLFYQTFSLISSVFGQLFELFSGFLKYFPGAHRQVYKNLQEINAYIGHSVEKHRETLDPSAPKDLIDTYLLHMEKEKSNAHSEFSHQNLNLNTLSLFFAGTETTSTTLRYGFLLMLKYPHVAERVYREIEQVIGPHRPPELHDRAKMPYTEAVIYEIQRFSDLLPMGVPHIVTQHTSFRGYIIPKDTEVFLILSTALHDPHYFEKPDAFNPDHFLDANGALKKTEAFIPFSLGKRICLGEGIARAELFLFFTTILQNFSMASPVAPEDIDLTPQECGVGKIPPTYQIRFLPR

Cytochrome P450 2C9 = Cytochrome P450 2C9 (Homo sapiens, UniProt P11712); experiment: Inhibition of CYP2C9 (unknown origin) at >25 uM; format: ADME
Cytochrome P450 2C9, sequence (P11712 whole entry): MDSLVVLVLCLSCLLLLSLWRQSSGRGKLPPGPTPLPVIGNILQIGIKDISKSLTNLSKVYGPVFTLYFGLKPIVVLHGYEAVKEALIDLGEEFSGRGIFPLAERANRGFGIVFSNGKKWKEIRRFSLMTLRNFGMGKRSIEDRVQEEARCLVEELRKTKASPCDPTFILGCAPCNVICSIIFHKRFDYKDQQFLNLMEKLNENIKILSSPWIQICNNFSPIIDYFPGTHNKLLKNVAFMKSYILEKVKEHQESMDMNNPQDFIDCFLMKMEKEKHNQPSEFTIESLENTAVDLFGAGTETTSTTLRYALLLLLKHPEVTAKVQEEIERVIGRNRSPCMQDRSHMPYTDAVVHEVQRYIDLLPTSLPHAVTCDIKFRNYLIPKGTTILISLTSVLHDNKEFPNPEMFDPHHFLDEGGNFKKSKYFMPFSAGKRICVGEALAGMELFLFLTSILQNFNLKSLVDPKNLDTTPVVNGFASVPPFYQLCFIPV

Cytochrome P450 2D6 = Cytochrome P450 2D6 (Homo sapiens, UniProt P10635); experiment: Inhibition of CYP2D6 (unknown origin) at >25 uM; format: ADME
Cytochrome P450 2D6, sequence (P10635 whole entry): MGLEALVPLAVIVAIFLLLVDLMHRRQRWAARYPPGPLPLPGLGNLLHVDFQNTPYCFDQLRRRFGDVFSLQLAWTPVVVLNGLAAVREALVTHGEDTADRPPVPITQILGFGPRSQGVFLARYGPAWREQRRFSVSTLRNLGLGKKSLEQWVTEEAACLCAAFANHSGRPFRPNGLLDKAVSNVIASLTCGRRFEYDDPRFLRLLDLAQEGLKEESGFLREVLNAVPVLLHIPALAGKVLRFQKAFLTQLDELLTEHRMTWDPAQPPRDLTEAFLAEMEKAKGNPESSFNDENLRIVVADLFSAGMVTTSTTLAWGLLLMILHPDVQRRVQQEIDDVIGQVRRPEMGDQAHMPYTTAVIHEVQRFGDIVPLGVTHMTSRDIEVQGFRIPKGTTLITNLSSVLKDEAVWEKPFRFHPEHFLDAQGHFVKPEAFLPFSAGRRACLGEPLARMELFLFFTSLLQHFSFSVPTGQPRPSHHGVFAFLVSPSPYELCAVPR

[19] = target: Cyclin-dependent kinase 1 (Homo sapiens, UniProt P06493); experiment: Inhibition of CDK1 in human OVCAR3 cells incubated for 30 mins in presence of pNPM T199 by western blot analysis; format: cell-based, OVCAR-3
Cyclin-dependent kinase 1, sequence (P06493 whole entry): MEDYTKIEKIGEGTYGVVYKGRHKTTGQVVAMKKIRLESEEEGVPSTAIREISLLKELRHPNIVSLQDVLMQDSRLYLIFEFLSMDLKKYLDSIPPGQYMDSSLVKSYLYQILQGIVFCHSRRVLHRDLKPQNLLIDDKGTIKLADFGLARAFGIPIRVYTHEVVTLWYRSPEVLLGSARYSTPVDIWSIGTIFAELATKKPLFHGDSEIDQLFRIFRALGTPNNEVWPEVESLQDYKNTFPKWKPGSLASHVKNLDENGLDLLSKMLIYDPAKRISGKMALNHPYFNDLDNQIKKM

IC50 [1]: 0.62 nM
Ratio IC50 (Homo sapiens [2]): 1900
Ratio IC50 (Homo sapiens [3]): 58
Ratio IC50 (Homo sapiens [4]): 120
IC50 [5]: 460 nM
predicted hepatic clearance at 1 µM [6]: 15 mL/min/kg
Compound: CNS(=O)(=O)c1ccc(Nc2ncc3c(n2)N(c2cc(F)ccc2Cl)C(=O)C32CC2)cc1

IC50 [1]: 5 nM
IC50 [7]: 170 nM
Compound: CC1(C)Cc2cnc(Nc3ccc(S(N)(=O)=O)cc3)nc2N(C2CCCC2)C1=O

IC50 [1]: 7 nM
IC50 [7]: 540 nM
Compound: C[C@H]1CCC[C@@H]1N1C(=O)C2(CC2)c2cnc(NC3CCN(S(C)(=O)=O)CC3)nc21 (mixture of isomers)
Ratio IC50 (Homo sapiens [8]): 77

IC50 [5]: 642 nM
predicted hepatic clearance at 1 µM [6]: 11.7 mL/min/kg
Cmax [9]: 992 nM
Cmax [10]: 138 nM
AUC at 24 h [11]: 1.15 µM·h
AUC at 24 h [12]: 0.739 µM·h
bioavailability [13]: 100%
bioavailability [14]: 100%
QH [15]: > 100%
QH [16]: 70%
Vd [17]: 1.1 L/kg
Vd [18]: 3.5 L/kg
inhibition (INH) (Cytochrome P450 3A4): Active
inhibition (INH) (Cytochrome P450 1A2): Active
inhibition (INH) (Cytochrome P450 2C8): Active
inhibition (INH) (Cytochrome P450 2C19): Active
inhibition (INH) (Cytochrome P450 2B6): Active
inhibition (INH) (Cytochrome P450 2C9): Active
inhibition (INH) (Cytochrome P450 2D6): Active
Compound: [2H]C([2H])([2H])NS(=O)(=O)c1ccc(Nc2ncc3c(n2)N([C@@H]2CCC[C@@H](O)C2)C(=O)C32CC2)cc1
inhibition at 24 h, 10 µM (hERG (KCNH2)): 9.7%

IC50 [1]: 431 nM
Compound: Cc1nn(C)cc1-c1ccnc(Nc2ccc(S(=O)(=O)N3CCOCC3)cc2)n1

IC50 [1]: 875 nM
Compound: CS(=O)(=O)N1CCC(Nc2ncc3c(n2)N(CC(F)F)C(=O)C32CC2)CC1

IC50 [1]: 161 nM
IC50 [7]: > 5000 nM
Compound: CN1Cc2cnc(Nc3ccc(S(N)(=O)=O)cc3)nc2C(C)(C)C1=O

IC50 [1]: 1610 nM
Compound: CS(=O)(=O)N1CCC(Nc2ncc3c(n2)N(c2ccccc2)C(=O)C32CC2)CC1

IC50 [1]: 102 nM
IC50 [7]: > 5000 nM
IC50 [19]: > 5 µM
Compound: CS(=O)(=O)N1CCC(Nc2ncc3c(n2)N(C2CCCC2)C(=O)C32CC2)CC1

IC50 [1]: 2800 nM
Compound: Cc1nn2cnc3[nH]ccc3c2c1C1CCCCC1

IC50 [1]: 0.32 nM
Ratio IC50 (Homo sapiens [2]): 100
Ratio IC50 (Homo sapiens [3]): 8
Ratio IC50 (Homo sapiens [4]): 9
IC50 [5]: 44 nM
predicted hepatic clearance at 1 µM [6]: > 18.3 mL/min/kg
Compound: C[C@@H]1CCC[C@H]1N1C(=O)C2(CC2)c2cnc(Nc3ccc(S(=O)(=O)N[C@@H]4CCCN(C)C4)cc3)nc21
